Data on two compounds can be found in patent US11141410B2 (MERCK SHARP & DOHME CORP., priority 2015, dated 2021).

Assay [1] relates to MRSA COL (MB5393). Nature of the assay: TarO Inhibitor/β-Lactam Synergy Assay (growth, OD600). It is filed as cell-based, Staphylococcus aureus. The gist of the method:
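TarO inhibitors titrated 2-fold from 200 μM (2% DMSO) against MRSA COL, 5×10^5 CFU in CAMHB, with β-lactam fixed at clinical breakpoint (imipenem 4 μg/ml or dicloxacillin 8 μg/ml). Incubated 20 h at 37 °C without shaking; relative growth read as OD600.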

Assay [2] deals with MRSA COL (MB5393). Described as above. The settings on record: Staphylococcus aureus, TarO inhibitor alone, >200 μM = 95% growth inhibition not achieved, 20 hours at 37° C., read-out: MITC95 TarO inhibitor alone, Bacteria: SA_MB5393. Format: cell-based.
The subject of assay [3] is MRSA COL (MB 5393). As to the kind of experiment: In Vivo Murine Systemic Infection Model. Further details: species or system Female Balb/C mice. As to conditions: sc tid; for Bacteria recovered: kidneys 24 h post challenge, neutropenic mice. On the procedure: The murine systemic infection model determines the therapeutic efficacy of TarO inhibitor/β-lactam combinations in vivo. Staphylococci bacteria can cause a systemic infection and establish a robust growth in the kidneys of the infected animal. MRSA COL can establish an infection even in the presence of β-lactam antibiotic due MRSA COL resistance to β-lactam antibiotics.
Female Balb/C mice were rendered neutropenic (immune suppressed) with a single 250 mg/kg intraperitoneal (ip) dose of cyclophosphamide on […]. MRSA COL (MB 5393) was grown for 16 hours in trypticase soy broth (TSB) at 37° C. and 0.5 mL of diluted culture (˜1×10^4 cfu) was administered intraperitoneal (IP). The TarO inhibitor and β-lactam antibiotic were administered alone or in combination by subcutaneous route at 2, 5 and 8 hr. post challenge (sc, tid). Twenty four hours post challenge mice were euthanized and the kidneys harvested, weighed, homogenized and plated to measure the total number of bacteria recovered as colony forming unit (CFU) remaining in compound treated groups as compared to vehicle (saline) or β-lactam antibiotic alone groups (statistical analyses was determined by one way ANOVA).

For `C[C@H]1[C@@H](c2cccc(C(F)(F)F)c2)OC(=O)N1C(=O)NCc1cncc2ccccc12` [Example 18, (4S,5R)-N-(isoquinolin-4-ylmethyl)-4-methyl-2-oxo-5-[3-(trifluoromethyl)phenyl]-1,3-oxazolidine-3-carboxamide], the “MITC95 TarO inhibitor + 4 μg/mL IPM; Bacteria: SA_MB5393” value in assay [1] (in combination with 4 μg/mL imipenem (IPM)) came to 0.23 µM. For the same compound, in assay [1] (in combination with 8 μg/mL dicloxacillin (DCX)), the “MITC95 TarO inhibitor + 8 μg/mL DCX; Bacteria: SA_MB5393” value was found to be 1.95 µM. Further, the IC95 in assay [2] is greater than 200 µM. In addition, in assay [3] (TarO inhibitor alone 50 mg/kg), the “Fold reduction vs. vehicle alone” value was −0.9 and the Bacteria recovered was 6.6×10^7 cfu/g kidney.
Take `C[C@@H](O)[C@H]1C(=O)N2C(C(=O)O)=C(SCCN=CN)C[C@H]12` [Imipenem, imipenem, reference compound]: the “MITC95 concentration of β-lactam antibiotic alone” value in assay [1] (β-lactam alone, MRSA COL) came to 32 µg/mL. Further, in assay [3] (Imipenem alone 5 mg/kg), the “Fold reduction vs. vehicle alone” value is recorded as 4.6 and the Bacteria recovered is listed as 1.3 × 10^7 cfu/g kidney.
